Reference: PubChem BioAssay AID330 (DTP/NCI, 2004)
Several values for one entry are separate records, joined by “and”; a condition that tells them apart may be missing. Equal values may be shown once. Inconclusive results and toxic doses are left out. The calls were made as follows: active = survival T/C of 150% or more; inactive = T/C below 125% in these data.

System: P388 leukemia ip, CD2F1 mice, survival T/C
Experiment: NCI In Vivo Anticancer Drug Screen. Data for tumor model P388 Leukemia (intraperitoneal) in CD2F1 (CDF1) mice
Settings: endpoint: median survival time, higher = longer survival
Outline: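 Mice carrying the transplanted tumor received test compound or vehicle. Survival was recorded in each group, and the value is the treated-group measurement divided by that of the vehicle-treated control group.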

[1] = dose: 50.0 mg/kg/injection, schedule: Q01DX009 (ip), vehicle: saline with Tween-80
[2] = dose: 100.0 mg/kg/injection, schedule: Q01DX009 (ip), vehicle: saline with Tween-80
[3] = dose: 25.0 mg/kg/injection, schedule: Q01DX005 (ip), vehicle: saline with Tween-80
[4] = dose: 50.0 mg/kg/injection, schedule: Q01DX005 (ip), vehicle: saline with Tween-80
[5] = dose: 100.0 mg/kg/injection, schedule: Q01DX005 (ip), vehicle: saline with Tween-80
[6] = dose: 100.0 mg/kg/injection, schedule: Q01DX001 (ip), vehicle: Klucel (hydroxypropylcellulose) (HPC)
[7] = dose: 200.0 mg/kg/injection, schedule: Q01DX005 (ip), vehicle: saline with Tween-80
[8] = dose: 200.0 mg/kg/injection, schedule: Q01DX009 (ip), vehicle: saline with Tween-80
[9] = dose: 50.0 mg/kg/injection, schedule: Q01DX005 (ip), vehicle: Klucel (hydroxypropylcellulose) (HPC)
[10] = dose: 100.0 mg/kg/injection, schedule: Q01DX005 (ip), vehicle: Klucel (hydroxypropylcellulose) (HPC)
[11] = dose: 120.0 mg/kg/injection, schedule: Q01DX005 (ip), vehicle: saline with Tween-80
[12] = dose: 240.0 mg/kg/injection, schedule: Q01DX005 (ip), vehicle: saline with Tween-80
[13] = dose: 50.0 mg/kg/injection, schedule: Q01DX009 (ip), vehicle: saline
[14] = dose: 100.0 mg/kg/injection, schedule: Q01DX009 (ip), vehicle: saline
[15] = dose: 200.0 mg/kg/injection, schedule: Q01DX009 (ip), vehicle: saline
[16] = dose: 12.5 mg/kg/injection, schedule: Q01DX005 (ip), vehicle: saline with Tween-80

Measured: T/C

Oc1ccc(O)c([P+](c2ccccc2)(c2ccccc2)c2ccccc2)c1
inactive: [1] 111 % of control | [2] 115 % of control

Cc1cc(=O)[nH]c2c(C)c(N)ccc12
inactive: [3] 95 % of control | [4] 104 % of control | [5] 95 % of control

C=C1C(=O)OC2/C=C(\C)CC(O)/C=C(\C)CC(OC(=O)C3(CO)OC3C)C12 (configuration not stated)
inactive: dose: 25.0 mg/kg/injection, schedule: Q01DX001 (ip), vehicle: Klucel (hydroxypropylcellulose) (HPC) 113 % of control | dose: 50.0 mg/kg/injection, schedule: Q01DX001 (ip), vehicle: Klucel (hydroxypropylcellulose) (HPC) 101 % of control | [6] 108 % of control

CC12CCc3ccccc3C1=Nc1ccccc12 (configuration not stated)
inactive: [4] 103 % of control | [5] 104 % of control | [7] 91 % of control

COC1=C/C(=C\N(O)C(C)(C)CO)C=CC1=O
inactive: [1] 99 % of control | [2] 91 % of control | [8] 91 % of control

OCc1c(-c2ccccc2)c(-c2ccccc2)c2n1CCC2
inactive: [4] 103 % of control | [5] 92 % of control | [7] 99 % of control

COC(=O)C1Cc2[nH]cnc2C(c2c(CO)cnc(C)c2O)N1 (configuration not stated)
inactive: [9] 104 % of control | [10] 104 % of control

O=C(NC1CCCCC1C1CCC(Cl)CC1)c1ccccc1 (configuration not stated)
inactive: [4] 89 % of control | [5] 87 % of control | [7] 87 % of control

CCN(CC)S(=O)(=O)c1ccc(OC)c(N)c1
inactive: [1] 90 % of control | [2] 95 % of control | dose: 100.0 mg/kg/injection, schedule: Q04DX003 (ip), vehicle: saline with Tween-80 90 % of control | [8] 90 % of control | dose: 200.0 mg/kg/injection, schedule: Q04DX003 (ip), vehicle: saline with Tween-80 90 % of control

CCN(CC#N)c1ccc(C=Nc2ccc(OC)cc2OC)cc1
inactive: [1] 91 % of control | [2] 93 % of control | [8] 97 % of control

CC(=O)N=C1CSc2ccccc2N1C
inactive: dose: 50.0 mg/kg/injection, schedule: Q01DX005 (ip), vehicle: saline + alcohol 99 % of control | dose: 100.0 mg/kg/injection, schedule: Q01DX005 (ip), vehicle: saline + alcohol 103 % of control | dose: 200.0 mg/kg/injection, schedule: Q01DX005 (ip), vehicle: saline + alcohol 109 % of control

CN(C)c1ccc(C(c2cc3c(cc2O)OCO3)N2CCOCC2)cc1 (configuration not stated)
inactive: dose: 60.0 mg/kg/injection, schedule: Q01DX005 (ip), vehicle: saline with Tween-80 113 % of control | [11] 120 % of control | [12] 108 % of control

O=C(NNc1ccc([N+](=O)[O-])cc1[N+](=O)[O-])Nc1cccc(Cl)c1
inactive: [1] 91 % of control | [2] 99 % of control | [8] 102 % of control

O=C1c2ccccc2C(=O)N1CC#CC[N+]1([O-])CCc2ccccc2C1 (configuration not stated)
inactive: dose: 12.5 mg/kg/injection, schedule: Q01DX005 (ip), vehicle: Klucel (hydroxypropylcellulose) (HPC) 103 % of control | dose: 25.0 mg/kg/injection, schedule: Q01DX005 (ip), vehicle: Klucel (hydroxypropylcellulose) (HPC) 102 % of control | [9] 103 % of control | [10] 110 % of control

C[Si](C)(C)c1cc[c]([Sn]([CH3])([CH3])[CH3])cc1
inactive: [13] 105 % of control | [14] 101 % of control | [15] 93 % of control

NC(=O)c1[nH]c(=O)[nH]c(=O)c1CSc1ccc(Cl)cc1
inactive: dose: 6.25 mg/kg/injection, schedule: Q01DX005 (ip), vehicle: saline with Tween-80 99 % of control | [16] 97 % of control | [3] 107 % of control | [4] 109 % of control | [5] 111 % of control

C=C1C(=O)C23C(O)CC4C(C)(C)C(OC(C)=O)C(OC(C)=O)CC4(C)C2CCC1C3O (configuration not stated)
inactive: dose: 11.88 mg/kg/injection, schedule: Q01DX005 (ip), vehicle: Klucel (hydroxypropylcellulose) (HPC) 115 % of control | dose: 23.75 mg/kg/injection, schedule: Q01DX005 (ip), vehicle: Klucel (hydroxypropylcellulose) (HPC) 112 % of control | dose: 47.5 mg/kg/injection, schedule: Q01DX005 (ip), vehicle: Klucel (hydroxypropylcellulose) (HPC) 112 % of control

CCC(C)N(C(=O)c1ccccc1)c1ccccc1 (configuration not stated)
inactive: dose: 12.5 mg/kg/injection, schedule: Q01DX009 (ip), vehicle: other 99 % of control and 106 % of control | dose: 12.5 mg/kg/injection, schedule: Q01DX009 (ip), vehicle: saline + Tween-80 + alcohol 101 % of control | dose: 25.0 mg/kg/injection, schedule: Q01DX009 (ip), vehicle: other 100 % of control and 102 % of control | dose: 25.0 mg/kg/injection, schedule: Q01DX009 (ip), vehicle: saline + Tween-80 + alcohol 104 % of control | dose: 50.0 mg/kg/injection, schedule: Q01DX009 (ip), vehicle: other 102 % of control | dose: 50.0 mg/kg/injection, schedule: Q01DX009 (ip), vehicle: saline + Tween-80 + alcohol 106 % of control

COc1ccc(-c2c3c(cc4cc5c(cc24)OCO5)C(=O)OC3)cc1OC
inactive: dose: 12.0 mg/kg/injection, schedule: Q01DX009 (ip), vehicle: Klucel (hydroxypropylcellulose) (HPC) 110 % of control | dose: 24.0 mg/kg/injection, schedule: Q01DX009 (ip), vehicle: Klucel (hydroxypropylcellulose) (HPC) 91 % of control | dose: 48.0 mg/kg/injection, schedule: Q01DX009 (ip), vehicle: Klucel (hydroxypropylcellulose) (HPC) 86 % of control | dose: 96.0 mg/kg/injection, schedule: Q01DX009 (ip), vehicle: Klucel (hydroxypropylcellulose) (HPC) 88 % of control

Cn1c(=S)[nH]c2sc3c(c2c1=O)CCCC3
inactive: [11] 97 % of control | [12] 96 % of control

CCn1nnnc1-c1ccccc1
inactive: [6] 91 % of control | dose: 200.0 mg/kg/injection, schedule: Q01DX001 (ip), vehicle: Klucel (hydroxypropylcellulose) (HPC) 88 % of control | dose: 400.0 mg/kg/injection, schedule: Q01DX001 (ip), vehicle: Klucel (hydroxypropylcellulose) (HPC) 91 % of control

O=C1c2ccccc2-c2cn(-c3ccccc3)c3cccc1c23
inactive: [9] 103 % of control | [10] 100 % of control

CC1(C)OC1CCl (configuration not stated)
inactive: [13] 107 % of control | [14] 102 % of control | [15] 101 % of control

C=C1CCN(c2ccc(C)cc2)C1=O
inactive: dose: 4.0 mg/kg/injection, schedule: Q01DX009 (ip), vehicle: saline + alcohol 100 % of control | dose: 8.0 mg/kg/injection, schedule: Q01DX009 (ip), vehicle: saline + alcohol 100 % of control | dose: 16.0 mg/kg/injection, schedule: Q01DX009 (ip), vehicle: saline + alcohol 96 % of control | dose: 64.0 mg/kg/injection, schedule: Q01DX009 (ip), vehicle: saline + alcohol 94 % of control

S=C=Nc1ccc(-c2csc(Nc3ccnc4cc(Cl)ccc34)n2)cc1
inactive: [16] 101 % of control | [3] 98 % of control | [4] 99 % of control and 91 % of control | [5] 94 % of control

CC(CCN(C)C)N(C)C (configuration not stated)
inactive: dose: 50.0 mg/kg/injection, schedule: Q01DX005 (ip), vehicle: suspension in saline 106 % of control | dose: 100.0 mg/kg/injection, schedule: Q01DX005 (ip), vehicle: suspension in saline 98 % of control

CC(=O)NC1C(NNC(=O)c2ccncc2)OC(CO)C(O)C1O (configuration not stated)
inactive: dose: 50.0 mg/kg/injection, schedule: Q01DX005 (ip), vehicle: saline 100 % of control | dose: 100.0 mg/kg/injection, schedule: Q01DX005 (ip), vehicle: saline 96 % of control | dose: 200.0 mg/kg/injection, schedule: Q01DX005 (ip), vehicle: saline 104 % of control
